Assays:
[1] = test system: Human chronic myelocytic leukemia cells, K562, ALDH (+) fraction (cancer stem cells); assay: Cancer stem-cell selective inhibitory action against chronic myelocytic leukemia cells, ALDH (+) fraction; format: cell-based; conditions: 24 hours
Experimental: (§1) Human chronic myelocytic leukemia cells, K562, were pre-cultured in RPMI1640 medium containing 10% FBS at 37° C. in a 5% CO2 ambient. Then, a fraction containing 80% or more of cancer stem cells was extracted by use of a cancer stem cell marker, ALDEFLUOR reagent (manufactured by VERITAS Corporation) and FACSAria flow cytometry (manufactured by Nippon Becton, Dickinson and Company). […] The cultured cells were analyzed for viable cell count according to CellTiter-Glo Luminescent Cell Viability Assay (manufactured by Promega KK.). […] Note that hereinafter, an ALDEFLUOR reagent positive fraction (deemed as cancer stem cells) is represented by ALDH (+), whereas an ALDEFLUOR reagent negative fraction (not deemed as cancer stem cells) is represented by ALDH (−), in some cases.
(§2) Further, the growth suppressive effect of cancer stem cells was evaluated based on the following criteria. Note that the growth rate in Examples is a value obtained by dividing viable cell count after culture by the number of cells at the initiation time of culture.

[2] = test system: K562 ALDH (−) cells; assay: Cancer stem-cell selective staining, ALDH (−) cells; format: cell-based, Human; conditions: cells of Experimental Examples 39, 42 and 45 (1 μg/ml, cultured for 24 hours), fluorescent microscope
Experimental: (§3) The cells cultured for 24 hours in each of Experimental Examples 39, 42 and 45 were subjected to nuclear staining with Hoechest33342 (manufactured by Dojindo Laboratories) and a fluorescent image observed under AXIOVERT200M inverted fluorescent microscope (manufactured by Carl Zeiss) was photographed.

[3] = test system: K562-KOr human chronic myelocytic leukemia cells, ALDH (+) fraction, transplanted to zebra young fish; assay: Inhibitory action in cancer stem cells transplanted animal, ALDH (+) fraction; format: in vivo; conditions: for Growth suppression rate (ALDH(+) versus ALDH(−)): zebra young fish transplanted with K562-KOr fractions; for ALDH(+) inhibition rate 100×(1−F1/F0): zebra young fish, 0.5 μm in breeding water added 24 hours after transplantation, fluorescent intensity
Text: (§4) From cell strain K562-KOr, which is a strain of human chronic myelocytic leukemia cells having fluorescent protein Kusabira-Orange constantly expressed, a fraction (ALDH (+)) containing 80% or more of cancer stem cells was extracted by use of a cancer stem cell marker, ALDEFLUOR reagent (manufactured by VERITAS Corporation) and FACSAria flow cytometry (manufactured by Nippon Becton, Dickinson and Company). The ALDH (+) fraction and a ALDH (−) fraction of general cancer cells were transplanted separately to zebra young fish (MieKomachi lineage, 2 days after fertilization) and the fish were raised in a 32° C. environment. Furthermore, 24 hours after transplantation, Compound (16) was added to breeding water so as to obtain a final concentration of […] and fish were raised for two days in a 32° C. environment.
(§5) Cells transplanted to the zebra young fish were observed under MZ16F fluorescent stereoscopic microscope (manufactured by Leica Microsystems) and a fluorescent image of the cells after 24 hours was photographed and then fluorescent intensity was quantified.
As a reference, the fluorescent intensity of cells, which were cultured in the same operation method as above in a medium containing a 0.1% DMSO solution in place of Compound (16), was used.
The numerical value of fluorescent intensity was obtained from a fluorescent image taken in the same manner as in Experimental Example 74 except that Compound (16) of Experimental Example 74 was changed to Imatinib.
. The inhibition rate herein was obtained according to the expression: 100×(1−F1/F0), where the fluorescent intensity of cells when a test substance was added is represented by F1, and the fluorescent intensity of cells when a reference substance (DMSO) was added is represented by F0.

[4] = Measurement of fluorescent property of compound; format: physicochemical; conditions: 5 μM DMSO solution
Experimental: The excitation wavelength and fluorescence wavelength of the compound were measured by a FL4500 spectrofluorometric measuring machine manufactured by Hitachi High-Technologies Corporation.

[5] = test system: K562 ALDH (+) cells; assay: Cancer stem-cell selective staining, ALDH (+) cells; format: cell-based, Human; conditions: cells of Experimental Examples 39, 42 and 45 (1 μg/ml, cultured for 24 hours), fluorescent microscope
Experimental: as §3

[6] = test system: K562-KOr human chronic myelocytic leukemia cells, ALDH (−) fraction, transplanted to zebra young fish; assay: Inhibitory action in cancer cells transplanted animal, ALDH (−) fraction; format: in vivo; conditions: 0.5 μm in breeding water added 24 hours after transplantation, fluorescent intensity
Text: as §4, §5
As a reference, the fluorescent intensity of cells, which were cultured in the same operation method as above in a medium containing a 0.1% DMSO solution in place of Compound (16), was used. […]

[7] = test system: Prostatic cancer cells, PC-3; assay: Cancer cell inhibitory (growth suppressive) action against prostatic cancer cells, CellTiter-Glo viable cell count; format: cell-based; conditions: PC-3, 10 μg/mL, 24 hours
Experimental: Prostatic cancer cells, PC-3, were pre-cultured in RPMI1640 medium containing 10% FBS at 37° C. in a 5% CO2 ambient. Thereafter, 4,000 cells were seeded per well of a 96-well plate and further cultured for 24 hours. Subsequently, Compound (1) was added to the medium so as to obtain a final concentration of 10 μg/mL and cultured at 37° C. for 24 hours in a 5% CO2 ambient. The cultured cells were analyzed for viable cell count according to Cell Titer-Glo Luminescent Cell Viability Assay (manufactured by Promega KK.).
Viable cell count was analyzed in the same manner as in Experimental Example 24 except that Compound (1) of Experimental Example 24 was changed to each compound shown in Table 2.
Viable cell count was analyzed in the same manner as in Experimental Example 24 except that Compound (1) of Experimental Example 24 was changed to each of Comparative compounds 1 to 4, to obtain growth rates.
Note that the growth rate used in Examples refers to the rate (expressed by percentage) of viable cell count after culture relative to the number of cells at the initiation of cell culture. Evaluation criteria are the same as in the above experiments.

[8] = test system: Human pancreas cancer cells, KLM-1; assay: Cancer cell inhibitory (growth suppressive) action against pancreatic cancer cells, CellTiter-Glo viable cell count; conditions: KLM-1, 10 μg/mL, 24 hours
Experimental: Human pancreas cancer cells, KLM-1, were pre-cultured in RPMI1640 medium containing 10% FBS at 37° C. in a 5% CO2 ambient. Thereafter, 4,000 cells were seeded per well of a 96-well plate and further cultured for 24 hours. […] The cultured cells were analyzed for viable cell count according to CellTiter-Glo Luminescent Cell Viability Assay (manufactured by Promega KK.).
Evaluation of cancer cell inhibition against the pancreatic cancer cells (KLM-1) (growth suppression) was made based on the following criteria. Note that the growth rate used in Examples refers to the rate (expressed by percentage) of viable cell count after culture relative to the number of cells at the initiation of cell culture.

[9] = test system: KLM1-KOr cells, ALDH (+) fraction, transplanted to zebra young fish; assay: Cancer metastasis suppressive effect in cancer cell metastatic foci (region within 300 to 450 μm from a transplanted tumor); format: in vivo; conditions: 72 hours later, region within 300 to 450 μm from transplanted tumor
Experimental: From cell strain […], in which KLM1 cells have fluorescent protein Kusabira-Orange constantly expressed, a fraction (ALDH (+)) containing 80% or more of cancer stem cells was extracted with ALDEFLUOR reagent (manufactured by VERITAS Corporation) and FACSAria flow cytometry (manufactured by Nippon Becton, Dickinson and Company). The extracted KLM1-KOr cells were transplanted to zebra young fish (MieKomachi lineage, 2 days after fertilization) and the fish were raised in a 32° C. environment. Furthermore, 24 hours after transplantation, Compound (26) (745 μmol/KgBW) was administered to yolk sac.
as §5, with “72 hours later, cells” for “Cells”, “region within 300 to 450 μm from a transplanted tumor” for “cells after 24 hours”
As a reference, the fluorescent intensity of cells, which were cultured in the same operation method as above in a medium containing a 0.1% DMSO solution in place of Compound (26), was used.
Fluorescent images were photographed in the same manner as in Experimental Example 26 except that Imatinib and Dasatinib were respectively used in place of the compound (26) in Experimental Example 75.
The inhibition rate herein was obtained according to the expression: 100×(1−F1/F0), where the fluorescent intensity of cells when a test substance was added is represented by F1, and the fluorescent intensity of cells when a reference substance (DMSO) was added is represented by F0.

[10] = test system: Human chronic myelocytic leukemia cells, K562, ALDH (−) fraction (general cancer cells); assay: Cancer stem-cell selective inhibitory action against chronic myelocytic leukemia cells, ALDH (−) fraction; format: cell-based; conditions: K562
Experimental: as §1, §2

Row | SMILES | ALDH(+) Superiority evaluation ([1]; K562, 0.05 μg/ml) | ALDH(+)/ALDH(−) ([1]; K562, 0.05 μg/ml) | ALDH(+) Superiority evaluation ([1]; K562, 0.5 μg/ml) | ALDH(+)/ALDH(−) ([1]; K562, 0.5 μg/ml) | ALDH(+) Superiority evaluation ([1]; K562, 1 μg/ml) | ALDH(+)/ALDH(−) ([1]; K562, 1 μg/ml) | ratio of ALDH (−) cells stained [2] | Growth suppression rate (ALDH(+) versus ALDH(−)) [3] | ALDH(+) inhibition rate 100×(1−F1/F0) [3] | Excitation wavelength λex [4] | Fluorescence wavelength λem [4] | ratio of ALDH (+) cells stained [5] | ALDH(−) inhibition rate 100×(1−F1/F0) [6] | Cancer cell growth rate (%) [7] | Evaluation (cancer cell growth rate) [7] | Cancer cell growth rate (%) [8] | Evaluation (cancer cell growth rate) [8] | also measured
1 | CCCCCN1/C(=C\C=C\c2oc3ccccc3[n+]2CCCCC)Oc2ccccc21 [Compound 16] | B (The value of the growth rate of ALDH (+)/the growth rate of ALDH (−) is 0.8 or more and less than 0.95) | 0.87 | A (The value of the growth rate of ALDH (+)/the growth rate of ALDH (−) is less than 0.8) | 0.70 | A (The value of the growth rate of ALDH (+)/the growth rate of ALDH (−) is less than 0.8) | 0.47 | 18.6% | ALDH(+) is high | 95.0 | 474 nm | 509 nm | 99.5% | 82.0 | 8.4% | A (Cancer cell growth rate is less than 20%) | 2.0% | A (Cancer cell growth rate is less than 20%) | 
2 | Cc1ccc(NC(=O)c2ccc(CN3CCN(C)CC3)cc2)cc1Nc1nccc(-c2cccnc2)n1 [Imatinib, reference compound] |  |  |  |  |  |  |  | ALDH(−) is high | 60.0 |  |  |  | 80.0 |  |  |  |  | ALDH(+) Superiority evaluation ([1]; K562, 0.12 μg/ml): C (The value of the growth rate of ALDH (+)/the growth rate of ALDH (−) is 0.95 or more); ALDH(+)/ALDH(−) ([1]; K562, 0.12 μg/ml): 1.47; ALDH(+) Superiority evaluation ([1]; K562, 0.24 μg/ml): C (The value of the growth rate of ALDH (+)/the growth rate of ALDH (−) is 0.95 or more); ALDH(+)/ALDH(−) ([1]; K562, 0.24 μg/ml): 1.48; ALDH(+) Superiority evaluation ([1]; K562, 0.35 μg/ml): C (The value of the growth rate of ALDH (+)/the growth rate of ALDH (−) is 0.95 or more); ALDH(+)/ALDH(−) ([1]; K562, 0.35 μg/ml): 1.51; ALDH(+) Superiority evaluation ([1]; K562, 0.47 μg/ml): C (The value of the growth rate of ALDH (+)/the growth rate of ALDH (−) is 0.95 or more); ALDH(+)/ALDH(−) ([1]; K562, 0.47 μg/ml): 1.63; ALDH(+) Superiority evaluation ([1]; K562, 0.59 μg/ml): C (The value of the growth rate of ALDH (+)/the growth rate of ALDH (−) is 0.95 or more); ALDH(+)/ALDH(−) ([1]; K562, 0.59 μg/ml): 2.80; Inhibition rate 100×(1−F1/F0), metastatic foci ([9]; administered to yolk sac 24 hours after transplantation (Compound (26) 745 μmol/KgBW)): 60; Evaluation (inhibition rate, metastatic foci) [9]: B (Inhibition rate is 50 or more and less than 70); inhibitory effect against general cancer cells [10]: an inhibitory effect against general cancer cells was observed
3 | CCN1C=C/C(=C/C=C/c2oc3ccccc3[n+]2CC)c2ccccc21 [Compound 35] | A (The value of the growth rate of ALDH (+)/the growth rate of ALDH (−) is less than 0.8) | 0.77 | A (The value of the growth rate of ALDH (+)/the growth rate of ALDH (−) is less than 0.8) | 0.66 | B (The value of the growth rate of ALDH (+)/the growth rate of ALDH (−) is 0.8 or more and less than 0.95) | 0.90 | 21.4% |  |  | 571 nm | 620 nm | 82.5% |  |  |  | 29.7% | B (Cancer cell growth rate is 20% or more and less than 50%) | ALDH(+) Superiority evaluation ([1]; K562, 10 μg/ml): A (The value of the growth rate of ALDH (+)/the growth rate of ALDH (−) is less than 0.8); ALDH(+)/ALDH(−) ([1]; K562, 10 μg/ml): 0.69
4 | CCN1/C(=C\C=C\C2=[N+](CC)c3ccccc3C23CCCCC3)C2(CCCCC2)c2ccccc21 [Compound 24] | B (The value of the growth rate of ALDH (+)/the growth rate of ALDH (−) is 0.8 or more and less than 0.95) | 0.81 | A (The value of the growth rate of ALDH (+)/the growth rate of ALDH (−) is less than 0.8) | 0.61 | A (The value of the growth rate of ALDH (+)/the growth rate of ALDH (−) is less than 0.8) | 0.48 | 28.6% |  |  | 496 nm | 569 nm | 81.2% |  | 10.0% | A (Cancer cell growth rate is less than 20%) | 6.5% | A (Cancer cell growth rate is less than 20%) | 
